Test results from PubChem BioAssay AID330 (DTP/NCI, 2004).
“And” between values parts separate entries of the source, which are not always exact repeats. Equal values may be shown once. Inconclusive results and toxic doses are left out. The calls were made as follows: active = survival T/C of 150% or more; inactive = T/C below 125% in these data.

System: P388 leukemia ip, CD2F1 mice, survival T/C
Test: NCI In Vivo Anticancer Drug Screen. Data for tumor model P388 Leukemia (intraperitoneal) in CD2F1 (CDF1) mice
Conditions: endpoint: median survival time, higher = longer survival
Procedure, shortened: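 Mice carrying the transplanted tumor received test compound or vehicle. Survival was recorded in each group, and the value is the treated-group measurement divided by that of the vehicle-treated control group.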

[1] = dose: 100.0 mg/kg/injection, schedule: Q01DX009 (ip), vehicle: saline with Tween-80
[2] = dose: 60.0 mg/kg/injection, schedule: Q01DX005 (ip), vehicle: saline with Tween-80
[3] = dose: 120.0 mg/kg/injection, schedule: Q01DX005 (ip), vehicle: saline with Tween-80
[4] = dose: 240.0 mg/kg/injection, schedule: Q01DX005 (ip), vehicle: saline with Tween-80
[5] = dose: 25.0 mg/kg/injection, schedule: Q01DX005 (ip), vehicle: saline with Tween-80
[6] = dose: 50.0 mg/kg/injection, schedule: Q01DX005 (ip), vehicle: saline with Tween-80
[7] = dose: 100.0 mg/kg/injection, schedule: Q01DX005 (ip), vehicle: saline with Tween-80
[8] = dose: 200.0 mg/kg/injection, schedule: Q01DX005 (ip), vehicle: saline with Tween-80
[9] = dose: 200.0 mg/kg/injection, schedule: Q01DX005 (ip), vehicle: Klucel (hydroxypropylcellulose) (HPC)
[10] = dose: 50.0 mg/kg/injection, schedule: Q01DX009 (ip), vehicle: saline with Tween-80
[11] = dose: 25.0 mg/kg/injection, schedule: Q04DX002 (ip), vehicle: saline with Tween-80
[12] = dose: 50.0 mg/kg/injection, schedule: Q04DX002 (ip), vehicle: saline with Tween-80
[13] = dose: 100.0 mg/kg/injection, schedule: Q04DX002 (ip), vehicle: saline with Tween-80

Measured: T/C

CSC(=S)NN=C(c1ccccn1)c1ccccn1
inactive: dose: 6.25 mg/kg/injection, schedule: Q01DX009 (ip), vehicle: saline with Tween-80 96 % of control | dose: 12.5 mg/kg/injection, schedule: Q01DX009 (ip), vehicle: saline with Tween-80 99 % of control | dose: 25.0 mg/kg/injection, schedule: Q01DX009 (ip), vehicle: saline with Tween-80 92 % of control | [1] 91 % of control | dose: 200.0 mg/kg/injection, schedule: Q01DX009 (ip), vehicle: saline with Tween-80 88 % of control

Cc1ccc2c(c1)C(=O)c1cc3c(cc1C2=O)OCO3
inactive: [2] 87 % of control | [3] 91 % of control | [4] 89 % of control and 91 % of control

COC(=O)c1cccc2cccc(C(=O)N(C)CCN(C)C)c12
inactive: [2] 97 % of control | [3] 95 % of control

CC(=O)[OH+]c1c(Br)cc(Br)cc1C(=O)[O-].CC(=O)[OH+]c1c(Br)cc(Br)cc1C(=O)[O-].[Cu+2]
inactive: dose: 12.5 mg/kg/injection, schedule: Q01DX005 (ip), vehicle: saline with Tween-80 101 % of control | [5] 100 % of control | dose: 50.0 mg/kg/injection, schedule: Q01DX005 (ip), vehicle: saline 102 % of control

Oc1ccc(C(c2cc3c(cc2O)OCO3)N2CCN(C(c3ccc(O)cc3)c3cc4c(cc3O)OCO4)CC2)cc1 (stereo not drawn)
inactive: dose: 60.0 mg/kg/injection, schedule: Q01DX005 (ip), vehicle: Klucel (hydroxypropylcellulose) (HPC) 104 % of control | dose: 120.0 mg/kg/injection, schedule: Q01DX005 (ip), vehicle: Klucel (hydroxypropylcellulose) (HPC) 103 % of control | dose: 240.0 mg/kg/injection, schedule: Q01DX005 (ip), vehicle: Klucel (hydroxypropylcellulose) (HPC) 100 % of control

CC(C)(C)c1cc2c3c(c1)C(C(F)(F)F)(C(F)(F)F)OS3(=O)(O)OC2(C(F)(F)F)C(F)(F)F
inactive: [5] 100 % of control | [6] 98 % of control | [7] 103 % of control

CCCCCC1NC(C(=O)O)CS1 (stereo not drawn)
inactive: dose: 50.0 mg/kg/injection, schedule: Q01DX009 (ip), vehicle: suspension in saline 88 % of control | dose: 100.0 mg/kg/injection, schedule: Q01DX009 (ip), vehicle: suspension in saline 94 % of control | dose: 200.0 mg/kg/injection, schedule: Q01DX009 (ip), vehicle: suspension in saline 102 % of control

O=C(O)CCCc1ccc(N(CCO)CCO)cc1
inactive: dose: 100.0 mg/kg/injection, schedule: Q04DX003 (ip), vehicle: saline 114 % of control | dose: 200.0 mg/kg/injection, schedule: Q04DX003 (ip), vehicle: saline 109 % of control | dose: 400.0 mg/kg/injection, schedule: Q04DX003 (ip), vehicle: saline 103 % of control

COC(=O)C1CCC2C(C1)OC1(CC(OC(=O)/C=C/c3ccccc3)C(C)CO1)C21CO1 (stereo not drawn)
inactive: dose: 3.0 mg/kg/injection, schedule: Q01DX005 (ip), vehicle: saline + alcohol 100 % of control | dose: 5.0 mg/kg/injection, schedule: Q01DX009 (ip), vehicle: saline + alcohol 95 % of control | dose: 6.0 mg/kg/injection, schedule: Q01DX005 (ip), vehicle: saline + alcohol 97 % of control | dose: 10.0 mg/kg/injection, schedule: Q01DX009 (ip), vehicle: saline + alcohol 106 % of control | dose: 12.0 mg/kg/injection, schedule: Q01DX005 (ip), vehicle: saline + alcohol 97 % of control | dose: 20.0 mg/kg/injection, schedule: Q01DX009 (ip), vehicle: saline + alcohol 103 % of control | dose: 24.0 mg/kg/injection, schedule: Q01DX005 (ip), vehicle: saline + alcohol 99 % of control | dose: 40.0 mg/kg/injection, schedule: Q01DX009 (ip), vehicle: saline + alcohol 103 % of control

CCOP(OCC)SSCn1nc2ccc3ccccc3n2c1=O
inactive: dose: 15.0 mg/kg/injection, schedule: Q01DX005 (ip), vehicle: saline with Tween-80 98 % of control | dose: 30.0 mg/kg/injection, schedule: Q01DX005 (ip), vehicle: saline with Tween-80 97 % of control | [2] 103 % of control

COc1ccccc1C1c2cc3c(cc2OC(C)(O)C1C)OCO3 (stereo not drawn)
inactive: [6] 100 % of control | [7] 97 % of control | [8] 96 % of control

Nc1ccc(O)c(=O)cc1
inactive: dose: 50.0 mg/kg/injection, schedule: Q01DX005 (ip), vehicle: Klucel (hydroxypropylcellulose) (HPC) 96 % of control | dose: 100.0 mg/kg/injection, schedule: Q01DX005 (ip), vehicle: Klucel (hydroxypropylcellulose) (HPC) 95 % of control | [9] 92 % of control

O=C(Nc1ccccc1)OC(CN1CCCCC1)C(CN1CCCCC1)OC(=O)Nc1ccccc1 (stereo not drawn)
inactive: dose: 12.5 mg/kg/injection, schedule: Q01DX005 (ip), vehicle: Klucel (hydroxypropylcellulose) (HPC) 99 % of control | dose: 25.0 mg/kg/injection, schedule: Q01DX005 (ip), vehicle: Klucel (hydroxypropylcellulose) (HPC) 91 % of control | [9] 87 % of control

OC(c1cc(C(F)(F)F)nc2c(Cl)cc(Cl)cc12)C1CCCCN1 (stereo not drawn)
inactive: [10] 105 % of control | [1] 106 % of control

O=c1cc(C(F)(F)F)c2cc3c(cc2o1)NCCC3
inactive: [2] 89 % of control | [3] 86 % of control

Cc1[nH]c2ccc(N(C)C)cc2c(=O)c1CN1CCOCC1
inactive: dose: 50.0 mg/kg/injection, schedule: Q01DX009 (ip), vehicle: Klucel (hydroxypropylcellulose) (HPC) 107 % of control | dose: 100.0 mg/kg/injection, schedule: Q01DX009 (ip), vehicle: Klucel (hydroxypropylcellulose) (HPC) 115 % of control | dose: 200.0 mg/kg/injection, schedule: Q01DX009 (ip), vehicle: Klucel (hydroxypropylcellulose) (HPC) 107 % of control

NC1=NC(c2ccccc2)C=C(c2ccccc2)N1 (stereo not drawn)
inactive: dose: 12.5 mg/kg/injection, schedule: Q04DX002 (ip), vehicle: saline with Tween-80 104 % of control | [11] 103 % of control | [12] 103 % of control

CC1(C)CC(=O)C(C2=NCCCC2)=C(O)C1
inactive: [13] 102 % of control | dose: 200.0 mg/kg/injection, schedule: Q04DX002 (ip), vehicle: saline with Tween-80 100 % of control | dose: 400.0 mg/kg/injection, schedule: Q04DX002 (ip), vehicle: saline with Tween-80 100 % of control

CN=C(N)N/N=C(\C)c1ccc2sc3ccccc3c2c1
inactive: [11] 104 % of control | [12] 106 % of control | [13] 107 % of control

O=c1oc2cc(O)ccc2cc1-c1nc2ccccc2o1
inactive: [2] 97 % of control | [3] 98 % of control | [4] 96 % of control

N#CCC(=O)O
inactive: dose: 18.75 mg/kg/injection, schedule: Q04DX003 (ip), vehicle: saline 100 % of control | dose: 37.5 mg/kg/injection, schedule: Q04DX003 (ip), vehicle: saline 100 % of control | dose: 75.0 mg/kg/injection, schedule: Q04DX003 (ip), vehicle: saline 90 % of control

O=C1CN(c2cccc(Cl)c2)C(=O)CN1/N=C/c1ccc[nH]1
inactive: [6] 92 % of control | [7] 102 % of control | [8] 90 % of control

CSC(Cl)=NC(=O)C(=O)N=C(Cl)SC
inactive: [10] 96 % of control | [1] 89 % of control

O=C(O)CS(=O)(=O)CCCCCS(=O)(=O)CC(=O)O
inactive: dose: 50.0 mg/kg/injection, schedule: Q01DX009 (ip), vehicle: saline 106 % of control | dose: 100.0 mg/kg/injection, schedule: Q01DX009 (ip), vehicle: saline 104 % of control | dose: 200.0 mg/kg/injection, schedule: Q01DX009 (ip), vehicle: saline 105 % of control

CC1CCC2(OC2(C)C)C(=O)C1 (stereo not drawn)
inactive: dose: 100.0 mg/kg/injection, schedule: Q04DX002 (ip), vehicle: saline 103 % of control | dose: 200.0 mg/kg/injection, schedule: Q04DX002 (ip), vehicle: saline 103 % of control | dose: 400.0 mg/kg/injection, schedule: Q04DX002 (ip), vehicle: saline 104 % of control
